Publication PMC11650737, “Developing MYC Degraders Bearing the Von Hippel–Lindau Ligand to Target the “Undruggable” MYC” (ACS Pharmacology & Translational Science, 2024)
Values joined by “and” are separate entries in the source; they are usually repeats but may differ in a detail not shown here. Equal entries are not always repeated.

Assays:
[1] = molecular target: T1, recombinant bHLH-MYC protein (Homo sapiens, UniProt P01106); assay: Direct binding to MYC by microscale thermophoresis (MST); conditions: compound 200 μM, labeled MYC 25 nM
T1 construct: The recombinant bHLHZ-Myc protein carrying an aminoterminal His6-tag; made in house; host or cells: bacteria
T1 sequence (P01106 368-452 limits assumed): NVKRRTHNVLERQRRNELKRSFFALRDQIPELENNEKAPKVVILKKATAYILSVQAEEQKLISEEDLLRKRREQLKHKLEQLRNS
Method: To investigate the capacity of MYC degraders to directly bind to MYC, microscale thermophoresis (MST) experiments were performed using recombinant bHLH-MYC protein. MST is a very sensitive, recently developed method based on the shift of fluorescent molecules moving in a temperature gradient that can be perturbed by interactions with other molecules. In this binding assay, a His6-tagged bHLH-MYC protein was fluorescently labeled via its hexa-histidine tag and subjected to MST measurement in the absence and in the presence of MYC degraders. All compounds tested shifted MYC thermophoresis (Figure 4), as shown by normalized fluorescence values, a clear indication that they bound directly to MYC. MST experiments were also run under identical conditions using two reference Myc inhibitors as positive controls: the biphenyl pyrazole MYCi361 and a thiazolidinone derivative, 10058-F4. Both are well-characterized MYC binders: The first one has been used as a POI ligand for the PROTACs designed and synthesized in this work, and the latter is widely known to inhibit MYC by specifically disrupting the MYC–Max complex formation.
Figure 4 Assay of direct binding to MYC by microscale thermophoresis (MST): MST of fluorescently labeled MYC (25 nM) mixed with several MYC degraders (200 μM) or the solvent alone (DMSO). MST of MYC binders 10058-F4 and MYCi361 used as positive controls. Data are shown as mean ± SEM.
Microscale thermophoresis (MST) assay was used to determine whether PROTACs bind directly to MYC. The recombinant bHLHZ-Myc protein carrying an aminoterminal His6-tag was expressed in bacteria from a plasmid kindly provided by George Sianidis (BRFAA, Greece) and purified, as previously described,[33] with minor modifications. […] MST was measured using a Monolith NT.115Pico with a red filter at an ambient temperature of 25 °C. […] Results were analyzed using the software provided with the Monolith instrument. Data are reported as ΔFnorm, which results from subtracting the normalized fluorescence value (Fnorm) of MYC in the absence of PROTAC from Fnorm in excess of PROTAC (bound state).

PC3 cells = assay: Cell uptake / intracellular concentration by LC-MS/MS, PC3; assay type: in vitro ADME, human; conditions: PC3, 24 h incubation with 10 μM
Method: Therefore, in order to better comprehend the observed activities of our degraders, following incubation of each compound with cells, the intracellular concentrations of the synthesized derivatives were evaluated in different cancer cell lines, as described previously.[28],[29] SKBR3, PC3, or A549 cells were incubated with PROTACs (at a 10 μΜ concentration) for selected time points, respectively. Upon sample treatment, compounds were extracted and analyzed by LC-MS/MS. Table 1 presents the percentage of the molecule that enters the cells after 24 h incubation at the 10 μM concentration. […] The small molecule MYCi361, used as a binding domain component of MYC, was also evaluated in the cell uptake assay (Table 1).
Cells were plated in 24-well plates at a density of 2 × 10^5 cells/well. 24 h after seeding, cells were incubated with each PROTAC (10 μΜ) for certain time points (1 h, 4 h, 8 h, and 24 h). The incubations were terminated at the selected time points by removing the medium and washing the cells twice with 1 mL cold PBS (1×) in each well in order to remove unbound PROTAC. Subsequently, the cells were lysed by adding a cold solution of ACN:H2O (3:2) and scraping off the cell monolayer. This process was done in two steps: first, 200 μL of ACN:H2O was added, the cells were scraped, and the cell lysate was collected. The second step involved the addition of an extra 100 μL of ACN:H2O, scraping, and collection of the remaining lysate. Samples were subsequently vortexed, sonicated, and centrifuged for 10 min at 13 000 rpm. The supernatants were collected, evaporated for 1 h at 55 °C, and stored at −20 °C until the day of analysis. Samples were then reconstituted in 200 μL of initial mobile phase (100% A), and the intracellular accumulation of PROTACs was determined by LC-MS/MS analysis using Warfarin as a stable internal standard and PROTAC standards for the construction of analytical standard curves.
The percentage of cell uptake was calculated as follows: [drawing 1]

SMILES	direct binding to MYC (shift of MYC thermophoresis) [1]	Uptake by cells (PC3 cells)
Cc1ncsc1-c1ccc(CNC(=O)[C@@H]2C[C@@H](O)CN2C(=O)[C@@H](NC(=O)CCC(=O)NCCCOc2ccc(-c3cc(C(F)(F)F)nn3C)c(O)c2-c2cc(C(F)(F)F)cc(C(F)(F)F)c2)C(C)(C)C)cc1 [CSI86]	equally potent	19% and 19 ± 4%
Cc1ncsc1-c1ccc(CNC(=O)[C@@H]2C[C@@H](O)CN2C(=O)[C@@H](NC(=O)CCCC(=O)NCCCOc2ccc(-c3cc(C(F)(F)F)nn3C)c(O)c2-c2cc(C(F)(F)F)cc(C(F)(F)F)c2)C(C)(C)C)cc1 [CSI107]	equally potent	13% and 13 ± 3%
Cc1ncsc1-c1ccc(CNC(=O)[C@@H]2C[C@@H](O)CN2C(=O)[C@@H](NC(=O)COCCOCC(=O)NCCCOc2ccc(-c3cc(C(F)(F)F)nn3C)c(O)c2-c2cc(C(F)(F)F)cc(C(F)(F)F)c2)C(C)(C)C)cc1 [CSI135]	equally potent	–
